Test results: patent US20090318470A1, “1-SUBSTITUTED-3-(NAPHTHALEN-1-YLSULFONYL)-5-(PIPERAZIN-1-YL)-1H-INDAZOLE COMPOUNDS AS 5-HYDROXYTRYPTAMINE-6 LIGANDS” (Wyeth, priority 2008, published 2009)
Counter-ions that a name gives are not always drawn. Like-named read-outs stand apart in the source and are kept apart here.

Assays:
[1] = CNS penetration following a single intraperitoneal dose; format: in vivo, Male Long Evans Rats; conditions: for Kp: male, Long Evans, rat, brain and plasma, read-out: Brain/plasma ratio
[2] = target: T1, serotonin 5HT6 receptor subtype (Homo sapiens, UniProt P50406); assay: 5HT6 Binding Affinity ([3H]-LSD SPA binding)
T1 construct: host or cells: CHO-Dukx-A2 cells, clone 50-7

[3] = Pharmacokinetics following a single IV bolus; set-up: species or system Male Long Evans Rats; conditions: male, Long Evans, rat, in vivo; single IV bolus at 2 mg/kg, n = 3
Experimental: (§1) Pharmacokinetics and CNS Penetration of Compounds were Determined Using HPLC Analysis of the Prepared Samples and Presented in Tables 2, 3, & 4 Below
(§2) Male Long Evans Rats were dosed with the candidate drug substance at the dosage amount and route listed above using standard pharmacokinetic procedures (Applied Biopharmaceutics & Pharmacokinetics, Shargel, L and Yu, A, 4th Ed 1999, McGraw-Hill, N.Y.; Welling, P G, Pharmacokinetics, Process and Mathematics, ACS Monograph 185, American Chemical Society 1986, Washington, D.C.; Lee, P and Amidon, G L, Pharmacokinetic Analysis-A Practical Approach, Technomic Pub Co Lancaster Pa. 1996)).

[4] = Microsomal stability, human; format: in vitro ADME; conditions: Human microsomes
Experimental: (§3) Compounds listed in Table 5, column A, are prepared as described in U.S. Pat. No. 7,238,696. Each of the compounds in Table 5, columns A and B, were screen according to the microsomal stability procedure described in Di et al., Journal of Biomolecular Screening 2003:453-462.

[5] = Pharmacokinetics following a single oral dose; set-up: species or system Male Long Evans Rats; conditions: male, Long Evans, rat, in vivo; for bioavailability: po, 10 mg/kg, Table 1, obtained according to Example 10; for AUC(0-inf): single oral dose of 10 mg/kg
Experimental: as §1, §2

[6] = Microsomal stability, rat; format: in vitro ADME; conditions: Rat microsomes
Experimental: as §3

[7] = intraperitoneal, 10 mg/mL, Table 1, obtained according to Example 10
[8] = CHO-Dukx-A2 cells expressing 5HT6, 3 nM [3H]-LSD, Cheng-Prusoff, read-out: 5HT6 Ki
[9] = ip, Table 4, single intraperitoneal dose of 10 mg/kg, n = 3

T1 sequence (P50406 whole entry): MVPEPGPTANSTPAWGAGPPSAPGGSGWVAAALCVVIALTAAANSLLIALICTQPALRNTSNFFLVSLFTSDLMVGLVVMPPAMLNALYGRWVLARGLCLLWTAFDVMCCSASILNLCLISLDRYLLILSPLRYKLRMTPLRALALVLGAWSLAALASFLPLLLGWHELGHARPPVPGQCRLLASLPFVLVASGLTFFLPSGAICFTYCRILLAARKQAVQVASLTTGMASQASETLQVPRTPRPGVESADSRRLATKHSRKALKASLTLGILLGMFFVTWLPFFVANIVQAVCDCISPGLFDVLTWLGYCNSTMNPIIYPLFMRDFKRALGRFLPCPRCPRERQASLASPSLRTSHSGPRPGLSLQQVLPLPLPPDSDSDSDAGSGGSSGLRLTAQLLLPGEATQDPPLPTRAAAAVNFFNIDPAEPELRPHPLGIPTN

Row | Compound | Kp [1, 7] | Ki [2, 8] [nM] | Kp [1, 9] | AUC(0-inf) [3] [ng·h/mL] | Microsomal Stability [4] [min] | bioavailability [5] [%] | AUC(0-inf) [5] [ng·h/mL] | Microsomal Stability [6] [min] | AUClast ([1]; matrix brain, single intraperitoneal dose of 10 mg/kg, n = 3) | Ki [2] [nM]
1 | CCn1nc(S(=O)(=O)c2cccc3ccccc23)c2cc(N3CCNCC3)ccc21 [Example 6, 1-Ethyl-3-(naphthalen-1-ylsulfonyl)-5-(piperazin-1-yl)-1H-indazole dihydrochloride] | 0.45 | 1.9 | – | – | – | – | – | – | – | –
2 | O=S(=O)(c1cccc2ccccc12)c1nn(Cc2ccccc2)c2ccc(N3CCNCC3)cc12 [Example 2, 1-Benzyl-3-(naphthalene-1-sulfonyl)-5-piperazin-1-yl-1H-indazole dihydrochloride] | 0.26 | 7.5 | 0.26 | 843 | 13 | 50 | 2100 | 25 | – | –
3 | CC(C)n1nc(S(=O)(=O)c2cccc3ccccc23)c2cc(N3CCNCC3)ccc21 [Example 8, 1-Isopropyl-3-(naphthalen-1-ylsulfonyl)-5-(piperazin-1-yl)-1H-indazole dihydrochloride] | 0.36 | 3 | – | – | >30 | – | – | >30 | – | –
4 | CC(C)Cn1nc(S(=O)(=O)c2cccc3ccccc23)c2cc(N3CCNCC3)ccc21 [Example 1, 1-Isobutyl-3-(naphthalen-1-ylsulfonyl)-5-(piperazin-1-yl)-1H-indazole dihydrochloride] | 0.81 | 4.6 | 0.81 | 378 | >30 | 22 | 413 | 24 | – | –
5 | O=S(=O)(c1cccc2ccccc12)c1nn(Cc2cccc(Cl)c2)c2ccc(N3CCNCC3)cc12 [Example 3, 1-(3-Chlorobenzyl)-5-(piperazin-1-yl)-3-(naphthalen-1-ylsulfonyl)-1H-indazole dihydrochloride] | – | 23.5 | – | – | – | – | – | – | – | –
6 | Cn1nc(S(=O)(=O)c2cccc3ccccc23)c2cc(N3CCNCC3)ccc21 [Example 5, 1-Methyl-3-(naphthalen-1-ylsulfonyl)-5-(piperazin-1-yl)-1H-indazole dihydrochloride] | 0.3 | 1.6 | – | – | – | – | – | – | – | –
7 | CCCn1nc(S(=O)(=O)c2cccc3ccccc23)c2cc(N3CCNCC3)ccc21 [Example 7, 3-(Naphthalen-1-ylsulfonyl)-5-(piperazin-1-yl)-1-propyl-1H-indazole dihydrochloride] | – | 2.2 | – | – | – | – | – | – | – | –
8 | O=S(=O)(c1cccc2ccccc12)c1n[nH]c2ccc(N3CCNCC3)cc12 [Compound C, 3-(naphthalen-1-ylsulfonyl)-5-(piperazin-1-yl)-1H-indazole dihydrochloride, reference compound] | < 0.01 | – | < 0.01 | 390 | – | 3 | 119 | – | Not detectable | 0.8
9 | CC(=O)n1nc(S(=O)(=O)c2cccc3ccccc23)c2cc(N3CCNCC3)ccc21 [Example 4, 1-(3-(Naphthalen-1-ylsulfonyl)-5-(piperazin-1-yl)-1H-indazol-1-yl)ethanone hydrochloride] | – | 1 | – | – | – | – | – | – | – | –
